# From patent publication US10781177B2, “Pyridine compound and use thereof” (Nippon Soda Co., Ltd., priority 2016, dated 2020)
# Test system: bean aphid
# Assay: Efficacy confirmation test on bean aphid
# Type: in vivo
# Conditions: 125 ppm sprayed on cowpea seedlings with bean aphid nymphs, 4th day after spraying; read-out: Mortality rate (converted)
# Experimental: (§1) An emulsion was prepared in the same manner as in Test Example 1. The emulsion was diluted with water so that the compound of the present invention is to be 125 ppm to obtain a chemical solution.
# Cowpea plants were raised in No. 3 pots and inoculated with bean aphid nymphs on primary leaves. The chemical solution was sprayed on the cowpea seedlings. The cowpea seedlings were placed in a thermostatic chamber at a temperature of 25° C. and a humidity of 60%. On the 4th day after spraying, the life and death of the aphid were determined and the mortality rate was calculated. The test was performed in duplicate.
# (§2) The mortality rate was calculated in the same manner as in Test Example 3.
row,Structure (SMILES),mortality at 125 ppm [%]
1,"COC(=O)Oc1c(C)c(C)nc(C)c1Cc1ccc(Oc2ccc(OC(F)(F)F)cc2)cc1 [1-3, methyl (2,3,6-trimethyl-5-((4-(4-(trifluoromethoxy)phenoxy)phenyl)methyl)-4-pyridyl) carbonate]",100
2,"COC(=O)Oc1c(C)c(C)nc(C(C)C)c1Cc1ccc(Oc2ccc(OC(F)(F)F)cc2)cc1 [1-9, (2-isopropyl-5,6-dimethyl-3-((4-(4-(trifluoromethoxy)phenoxy)phenyl)methyl)-4-pyridyl) methyl carbonate]",100
3,"COC(=O)Oc1c(C)c(C)nc(C(C)C)c1Cc1ccc(-c2noc(C(F)(F)F)n2)cc1 [1-44, 2-isopropyl-5,6-dimethyl-3-(4-(5-(trifluoromethyl)-1,2,4-oxadiazole-3-yl)benzyl) pyridine-4-yl methyl carbonate]",100
4,COC(=O)Oc1c(C)c(C)nc(C(C)C)c1Cc1ccc(-c2ccc(OC(F)(F)F)cc2)s1 [7-9],100

# Test system: Tetranychus kanzawai
# Assay: Efficacy confirmation test on Tetranychus kanzawai
# Type: in vivo
# Conditions: 125 ppm sprayed on kidney bean seedlings with female imagoes, 10th day after spraying, read-out: Mortality rate (converted)
# Experimental: as §1
# Kidney bean plants were raised in 3 pots, and inoculated with 10 female imagoes of tetranychus kanzawai on primary leaves. The medicinal solution was sprayed on the kidney bean seedlings. The kidney bean seedlings were placed in a thermostatic chamber at a temperature of 25° C. and a humidity of 65%. On the 10th day after spraying, the survival and death of imagoes of tetranychus kanzawai were determined and the mortality rate was calculated. The test was performed in duplicate.
# as §2
row,Structure (SMILES),mortality at 125 ppm [%]
1,"COC(=O)Oc1c(C)c(C)nc(C)c1Cc1ccc(Oc2ccc(OC(F)(F)F)cc2)cc1 [1-3, methyl (2,3,6-trimethyl-5-((4-(4-(trifluoromethoxy)phenoxy)phenyl)methyl)-4-pyridyl) carbonate]",100
2,"COC(=O)Oc1c(C)c(C)nc(C(C)C)c1Cc1ccc(Oc2ccc(OC(F)(F)F)cc2)cc1 [1-9, (2-isopropyl-5,6-dimethyl-3-((4-(4-(trifluoromethoxy)phenoxy)phenyl)methyl)-4-pyridyl) methyl carbonate]",100
3,"COC(=O)Oc1c(C)c(C)nc(C(C)C)c1Cc1ccc(-c2noc(C(F)(F)F)n2)cc1 [1-44, 2-isopropyl-5,6-dimethyl-3-(4-(5-(trifluoromethyl)-1,2,4-oxadiazole-3-yl)benzyl) pyridine-4-yl methyl carbonate]",100
4,COC(=O)Oc1c(C)c(C)nc(C(C)C)c1Cc1ccc2ccccc2c1 [7-12],100
5,COC(=O)Oc1c(C)c(C)nc(C(C)C)c1Cc1ccc2c(c1)CCC2c1ccc(F)cc1 (stereo not shown) [7-16],100
6,COC(=O)Oc1c(C)c(C)nc(C(C)C)c1Cc1ccc2sc(C(F)(F)F)nc2c1 [7-20],100
7,COC(=O)Oc1c(C)c(C)nc(C(C)C)c1Cc1ccc2nc(C(F)(F)F)ccc2c1 [7-25],100

# Test system: not given
# Assay: not given
# Conditions: not given
row,Structure (SMILES),melting point [°C]
1,Cc1nc(C)c(Cc2cc(-c3ccc(C(F)(F)F)cc3)on2)c(OCc2ccccc2)c1C [7-4],118 to 121
2,Cc1nc(C)c(Cc2cc(-c3ccc(C(F)(F)F)cc3)on2)c(O)c1C [7-5],200
3,CC(=O)Oc1c(C)c(C)nc(C)c1Cc1cc(-c2ccc(C(F)(F)F)cc2)on1 [7-6],170 to 173
4,C=CCOc1c(C)c(C)nc(C)c1CN1C(=O)c2ccccc2C1=O [7-7],145 to 147
5,Cc1nc(C(C)C)c(Cc2ccc(-c3ccc(OC(F)(F)F)cc3)s2)c(O)c1C [7-8],250
6,Cc1nc2cc(Cc3c(C(C)C)nc(C)c(C)c3O)ccc2s1 [7-13],284 to 286
7,Cc1nc(C(C)C)c(Cc2ccc3c(c2)CCC3c2ccc(F)cc2)c(O)c1C (stereo not shown) [7-15],260 to 262
8,Cc1nc(C(C)C)c(Cc2cccc3c2CCC3c2ccc(F)cc2)c(O)c1C (stereo not shown) [7-17],296 to 298
9,Cc1nc(C(C)C)c(Cc2ccc3sc(C(F)(F)F)nc3c2)c(O)c1C [7-19],273 to 274
10,Cc1nc(C(C)C)c(Cc2ccc3cc(C(F)(F)F)ccc3c2)c(O)c1C [7-24],268 to 269
11,Cc1nc(C(C)C)c(Cc2ccc3c(c2)C(c2ccc(F)cc2)CC3)c(O)c1C (stereo not shown) [7-28],221 to 224
12,Cc1nc(C(C)C)c(Cc2cccc3c2oc2ccccc23)c(O)c1C [7-30],300
13,COC(=O)Oc1c(C)c(C)cc(C(C)C)c1Cc1ccc(-c2ccc(C(C)=NOC3CCC(C(F)(F)F)CC3)cc2)cc1 (stereo not shown) [7-53],58 to 59

# Other lines, results leading:
row,melting point [°C],Structure (SMILES)
1,268 to 270,Cc1nc(C(C)C)c(Cc2ccc3ccccc3c2)c(O)c1C [7-11]
2,254 to 256,Cc1nc(C(C)C)c(Cc2ccc3ncccc3c2)c(O)c1C [7-21]
3,127 to 128,COC(=O)Oc1c(C)c(C)nc(C(C)C)c1Cc1ccc2ncccc2c1 [7-22]
4,290 to 292,Cc1nc(C(C)C)c(Cc2ccc3ccc(C(F)(F)F)nc3c2)c(O)c1C [7-26]
5,125 to 126,COC(=O)Oc1c(C)c(C)nc(C(C)C)c1Cc1ccc2ccc(C(F)(F)F)nc2c1 [7-27]
6,114 to 116,COC(=O)Oc1c(C)c(C)nc(C(C)C)c1Cc1cccc2c1oc1ccccc12 [7-31]
7,300,Cc1nc(C(C)C)c(Cc2ccc3sc4ccccc4c3c2)c(O)c1C [7-32]
8,154 to 155,COC(=O)Oc1c(C)c(C)nc(C(C)C)c1Cc1ccc2sc3ccccc3c2c1 [7-33]
9,115 to 120,COCCC(=O)NC1CCc2cc(Cc3c(C(C)C)nc(C)c(C)c3O)ccc21 (stereo not shown) [7-34]
10,107 to 108,COc1c(C)c(C)nc(C(C)C)c1Cc1ccc(C2CCC3(CC2)OCCO3)cc1 [7-42]
11,101 to 115,CCO/N=C(/NC(=O)C1CCC(C)CC1)c1ccc(Cc2c(C(C)C)nc(C)c(C)c2O)cc1 (stereo not shown) [7-43]
12,210 to 212,CCO/N=C(/NC(=O)C(F)(F)C(F)(F)F)c1ccc(Cc2c(C(C)C)nc(C)c(C)c2O)cc1 [7-45]
13,98 to 100,CCO/N=C(/NC(=O)C(F)(F)C(F)(F)F)c1ccc(Cc2c(C(C)C)nc(C)c(C)c2OC(=O)OC)cc1 [7-46]
14,169 to 171,COC(=O)Oc1c(C)c(C)nc(C(C)C)c1Cc1ccc(C(=O)NC(=O)C2CCC(C)CC2)cc1 (stereo not shown) [7-47]
15,154 to 155,COc1c(C)c(C)nc(C(C)C)c1Cc1ccc(NC(=O)CC(C)(C)C)cc1 [7-51]
16,300,Cc1nc(C(C)C)c(Cc2ccc(NC(=O)CC(C)(C)C)cc2)c(O)c1C [7-52]
